Data set [1] concerns skin of rabbits. The data set can be described thus: Draize test (skin irritation, PII value). The settings on record: for PH value: starting material (component) of the adhesive materials; for PII value: preferred acrylic/methacrylic acid esters.
Description: (§1) The PII, or skin irritation, value is a skin toxicity index measured in accordance with the method defined by the Consumer Product Safety Commission of the USA (Draize Method; The Consumer Product Safely Commission of the USA, the Code of Federal Regulations, Title 16, Section 1500.41). A lower index corresponds to less pronounced skin irritation.
(§2) Hair was removed with the aid of an electric hair clipper from the lumbar regions of six healthy rabbits (body weight: 2.0-4.0 kg) to expose the skin over an area of about 10 cm^2. The skin on the right side of the vertebra was incised with a surgical knife over an area of 2.5 cm^2, creating a lesion. The skin on the left side of the vertebra was left intact, and pads obtained by applying 0.5 mL samples were affixed at two locations on the right and left of the vertebra. The pads were peeled off 24 and 72 hours following affixation, redness and swelling were visually observed, the results were graded using a five-point system (levels 0 to 4), a gross mean was obtained using the average values for each rabbit, and the gross mean value was termed the PII value.
In data set [2] the test system is mutant strain (his−) of Salmonella requiring histidine. The settings on record: starting material (component) of the adhesive materials. The protocol: The Ames test referred to herein is also known as a mutagenicity test, and is one of tests in which bacteria are used to screen chemical substances for carcinogenicity or mutagenicity. […] This mutation is the result of DNA damage, and carcinogenicity is believed to become more pronounced with increased ease of mutation. Consequently, an adhesive material having high biological safety must give a negative result of the Ames test.
This test was performed using direct reverse mutation of a mutant strain (his−) of Salmonella requiring histidine to a non-requiring strain (his+) under the action of a test substance. A specific test method involved preparing histidine-free media to which a metabolically active substance (S9) bad been added, and histidine-free media devoid of the metabolically active substance (S9). The test substance was admixed into these media, a strain (his−) requiring histidine was cultured, and the bacterial colony count of a medium containing the test substance was compared with the bacterial colony count of a medium devoid of the substance. If the first value was greater than the second, the test result was concluded to be positive, otherwise the result was concluded to be negative.

For data set [3], the system named is skin of rabbits. The settings on record: rabbit, in vivo.
Description: as §1, §2

Like-named read-outs stand apart in the source and are kept apart here.

As to `C=CC(=O)OCCOc1ccccc1` [Phenoxyethyl acrylate], the PH value with skin of rabbits [1] is reported as 1.5. 1,3-butanediol methacrylate: the PII value with skin of rabbits [1] is 0.0. In the data set with skin of rabbits [1], `C=C(C)C(=O)OCC(C)(C)COC(=O)C(=C)C` [Neopentyl glycol dimethacrylate] came in with a PII value of 0.0 and a PH value of 0.0. Further, the Mutagenicity result in data set [2] is “negative”. `C=C(C)C(=O)OCC(C)O` (centres unmarked) [2-hydroxypropyl methacrylate]: the PII value in the data set on skin of rabbits [1] was 0.0. In the case of Polypropylene glycol diacrylate, in data set [2], the Mutagenicity entry is “negative”. In the data set on skin of rabbits [3], this compound yielded a PH value of 0.0 and a PII value of 0.0. In the data set with skin of rabbits [1], ditrimethylol propane tetraacrylate yielded a PII value of 0.0. Turning to `C=C(C)C(=O)OCCO` [hydroxyethyl methacrylate], in the data set with skin of rabbits [1], the PII value amounted to 0.0.
